This is an account of results in patent publication US20060142247A1, “Tricyclic heterocycles” (priority 2004, published 2006).

The assay has as its system HCT 116 cells. The assay is described as follows: Viability assay HCT 116 cells (CellTiter-Glo). It counts as cell-based. The conditions noted are these: Homo sapiens, HCT-116, 120 h, HCT 116 human colon carcinoma cells, 5 days incubation, CellTiter-Glo luminescence. The protocol:
Viability Assay—HCT 116 Cells
A viability assay was performed using the CellTiter-Glo® Luminescent Cell Viability Assay (see Promega Corporation's Technical Bulletin No. 288, pp. 1-11 [revised 2/04] which is hereby incorporated by reference in its entirety). This assay is a homogeneous method of determining the number of viable cells in culture based on quantitation of the ATP present, an indicator of metabolically active cells. The assay is designed for use with multiwell formats, making it ideal for automated high-throughput screening (HTS), cell proliferation and cytotoxicity assays. The homogeneous assay procedure involves adding a single reagent (containing luciferase, luciferan substrate, and buffer) directly to cells cultured in serum-supplemented medium. Cell washing, removal of medium and multiple pipetting steps are not required. The system detects as few as 15 cells/well in a 384-well format in 10 minutes after adding reagent and mixing.
The homogeneous “add-mix-measure” format results in cell lysis and generation of a luminescent signal proportional to the amount of ATP present. The amount of ATP is directly proportional to the number of cells present in culture. The above-referenced assay generates a “glow-type” luminescent signal, produced by the luciferase reaction, which has a half-life generally greater than five hours, depending on cell type and medium used. The extended half-life eliminates the need to use reagent injectors and provides flexibility for continuous or batch mode processing of multiple plates. The unique homogeneous format avoids errors that may be introduced by other ATP measurement methods that require multiple steps.
HCT 116 cells (human colon carcinoma, ATCC-No. CCl-247) were cultivated in RPMI 1640 medium with GlutaMAX™ I (cell culture media that contains L-Alanyl-L-Glutamine [a stabilized a form/source of L-Glutamine] from Invitrogen, Cat-No. 61870-010), 2.5% Fetal Calf Serum (FCS, Sigma Cat-No. F4135 (FBS)); 100 Units/ml penicillin/100 μg/ml streptomycin (=Pen/Strep from Invitrogen Cat. No. 15140). For the assay the cells were seeded in 384 well plates, 1000 cells per well, in the same medium. The next day the test compounds were added in various concentrations ranging from 30 μM to 0.0015 μM (10 concentrations, 1:3 diluted). After 5 days the viability assay was done according to the instructions of the manufacturer. In brief: the cell-plate was equilibrated to room temperature for approximately 30 minutes and than the reagent (containing luciferase, luciferan substrate, and buffer) was added. The contents were carefully mixed for 15 minutes to induce cell lysis. After 45 minutes the luminescent signal was measured in Victor 2, (scanning multiwell spectrophotometer, Wallac).
Medium: RPMI 1640 with cell culture media containing L-Alanyl-L-Glutamine [GlutaMAX™ I (Invitrogen, Cat-Nr. 61870)], 5% FCS (Sigma Cat.-No. F4135), Pen/Strep (Invitrogen, Cat No. 15140). • HCT116 (ATCC-No. CCl-247): 1000 cells in 60 μl per well of 384 well plate (Greiner 781098, μClear-plate white) • After seeding incubate plates 24 h at 37° C., 5% CO2 2nd. Day: Induction (Treatment with Compounds, 10 Concentrations):
In order to achieve a final concentration of 30 μM as highest concentration […] of 10 mM compound stock solution were added directly to 163 μl media. Then step e) of the dilution procedure described below, was followed.
(Cellular ATP, detected with luciferase, serves as a proxy for viable cell number.)
A word on the IC50: it is the midpoint of a concentration-inhibition curve. Lower therefore signals greater potency. `CCN1C(=O)C(C)(C)c2cc3[nH]c(-c4n[nH]c5ccc(NS(=O)(=O)c6cccc(Cl)c6)cc45)nc3cc21` [Example 138, 3-Chloro-N-[3-(5-ethyl-7,7-dimethyl-6-oxo-1,5,6,7-tetrahydro-imidazo[4,5-f]indol-2-yl)-1H-indazol-5-yl]-benzenesulfonamide] came in with an IC50 of 100 to 1000 nM.
In the case of `CCN1C(=O)C(C)(C)c2cc3nc(-c4n[nH]c5cc(Br)ccc45)[nH]c3cc21` [Example 70, 2-(6-Bromo-1H-indazol-3-yl)-5-ethyl-7,7-dimethyl-5,7-dihydro-3H-imidazo[4,5-f]indol-6-one] it was 100 to 1000 nM.
For `CCN1C(=O)C(C)(C)c2cc3[nH]c(-c4n[nH]c5ccc(NS(=O)(=O)c6ccccc6[N+](=O)[O-])cc45)nc3cc21` [Example 134, N-[3-(5-Ethyl-7,7-dimethyl-6-oxo-1,5,6,7-tetrahydro-imidazo[4,5-f]indol-2-yl)-1H-indazol-5-yl]-2-nitro-benzenesulfonamide], the IC50 fell in the range of 100 to 1000 nM.
As to `CN1C(=O)C(C)(C)c2cc3nc(-c4n[nH]c5ccccc45)[nH]c3cc21` [Example 4, 2-(1H-indazol-3-yl)-5,7,7-trimethyl-5,7-dihydro-3H-imidazo[4,5-f]indol-6-one], the IC50 lay in the range of 100 to 1000 nM.
In turn, `CONC(=O)CN1C(=O)C(C)(C)c2cc3nc(-c4n[nH]c5ccccc45)[nH]c3cc21` [Example 51, 2-[2-(1H-Indazol-3-yl)-7,7-dimethyl-6-oxo-6,7-dihydro-3H-imidazo[4,5-f]indol-5-yl]-N-methoxy-acetamide] displayed an IC50 of 100 to 1000 nM.
In the case of `CCN1C(=O)C(C)(C)c2cc3nc(-c4n[nH]c5ccc(C(=O)NCc6cccc(Cl)c6)cc45)[nH]c3cc21` [Example 88, 3-(5-Ethyl-7,7-dimethyl-6-oxo-3,5,6,7-tetrahydro-imidazo[4,5-f]indol-2-yl)-1H-indazole-5-carboxylic acid 3-chloro-benzylamide] it was 100 to 1000 nM; in that of `CC1(C)C(=O)N(CCS(C)(=O)=O)c2cc3[nH]c(-c4n[nH]c5ccccc45)nc3cc21` [Example 65, 2-(1H-Indazol-3-yl)-5-(2-methanesulfonyl-ethyl)-7,7-dimethyl-5,7-dihydro-3H-imidazo[4,5-f]indol-6-one], 100 to 1000 nM.
In the case of `CC1(C)C(=O)N(Cc2nccs2)c2cc3[nH]c(-c4n[nH]c5ccccc45)nc3cc21` [Example 32, 2-(1H-Indazol-3-yl)-7,7-dimethyl-5-thiazol-2-ylmethyl-5,7-dihydro-3H-imidazo[4,5-f]indol-6-one] it was 240 nM; in that of `CCN1C(=O)C(C)(C)c2cc3[nH]c(-c4n[nH]c5ccc(NC(=O)N6CCOCC6)cc45)nc3cc21` [Example 128, Morpholine-4-carboxylic acid [3-(5-ethyl-7,7-dimethyl-6-oxo-1,5,6,7-tetrahydro-imidazo[4,5-f]indol-2-yl)-1H-indazol-5-yl]-amide], 1000 to 10000 nM; in that of `CC1(C)C(=O)N(CCNS(C)(=O)=O)c2cc3[nH]c(-c4n[nH]c5ccccc45)nc3cc21` [Example 61, N-{2-[2-(1H-Indazol-3-yl)-7,7-dimethyl-6-oxo-6,7-dihydro-3H-imidazo[4,5-f]indol-5-yl]-ethyl}-methanesulfonamide], 100 to 1000 nM.
In the case of `CC1(C)C(=O)Nc2cc3[nH]c(-c4n[nH]c5ccc(C(=O)NCc6ccccc6)cc45)nc3cc21` [Example 77, 3-(7,7-Dimethyl-6-oxo-3,5,6,7-tetrahydro-imidazo[4,5-f]indol-2-yl)-1H-indazole-5-carboxylic acid benzylamide] it was 100 to 1000 nM.
Compound `CCN1C(=O)C(C)(C)c2cc3nc(-c4n[nH]c5ccc(C(N)=O)cc45)[nH]c3cc21` [Example 100, 3-(5-Ethyl-7,7-dimethyl-6-oxo-3,5,6,7-tetrahydro-imidazo[4,5-f]indol-2-yl)-1H-indazole-5-carboxylic acid amide] yielded an IC50 of 1000 to 10000 nM.
The same measure for `CC1(C)C(=O)N(CC(=O)NCc2ccc(F)cc2)c2cc3[nH]c(-c4n[nH]c5ccccc45)nc3cc21` [Example 46, N-(4-Fluoro-benzyl)-2-[2-(1H-indazol-3-yl)-7,7-dimethyl-6-oxo-6,7-dihydro-3H-imidazo[4,5-f]indol-5-yl]-acetamide]: 100 to 1000 nM.
As to `CCN1C(=O)C(C)(C)c2cc3nc(-c4n[nH]c5cc(C(=O)Nc6ccccc6)ccc45)[nH]c3cc21` [Example 108, 3-(5-Ethyl-7,7-dimethyl-6-oxo-3,5,6,7-tetrahydro-imidazo[4,5-f]indol-2-yl)-1H-indazole-6-carboxylic acid phenylamide], the IC50 is 100 to 1000 nM.
`CC1(C)C(=O)N(CCNC(=O)c2cccnc2)c2cc3[nH]c(-c4n[nH]c5ccccc45)nc3cc21` [Example 55, N-{2-[2-(1H-Indazol-3-yl)-7,7-dimethyl-6-oxo-6,7-dihydro-3H-imidazo[4,5-f]indol-5-yl]-ethyl}-nicotinamide] had an IC50 of 100 to 1000 nM.
The same measure for `CCN1C(=O)C(C)(C)c2cc3[nH]c(-c4n[nH]c5ccc(NS(=O)(=O)c6ccccc6S(C)(=O)=O)cc45)nc3cc21` [Example 140, N-[3-(5-Ethyl-7,7-dimethyl-6-oxo-1,5,6,7-tetrahydro-imidazo[4,5-f]indol-2-yl)-1H-indazol-5-yl]-2-methanesulfonyl-benzenesulfonamide]: 100 to 1000 nM; for `CCN1C(=O)CC(C)(C)c2cc3nc(-c4n[nH]c5ccccc45)[nH]c3cc21` [Example 14, 5-Ethyl-2-(1H-indazol-3-yl)-8,8-dimethyl-3,5,7,8-tetrahydro-imidazo[4,5-g]quinolin-6-one]: 640 nM; for `CCN1C(=O)C(C)(C)c2cc3nc(-c4n[nH]c5ccc(F)cc45)[nH]c3cc21` [Example 66, 5-Ethyl-2-(5-fluoro-1H-indazol-3-yl)-7,7-dimethyl-5,7-dihydro-3H-imidazo[4,5-f]indol-6-one]: 100 to 1000 nM.
In the case of `CCN1C(=O)C(C)(C)c2cc3[nH]c(-c4n[nH]c5ccc(NC(=O)Cc6ccccc6C)cc45)nc3cc21` [Example 113, N-[3-(5-Ethyl-7,7-dimethyl-6-oxo-1,5,6,7-tetrahydro-imidazo[4,5-f]indol-2-yl)-1H-indazol-5-yl]-2-o-tolyl-acetamide] it was 100 to 1000 nM.
